Converted amounts (≈) assume the structure as drawn. Like-named read-outs stand apart in the source and are kept apart here.
Legend:
[1] = system: M. tuberculosis strain H37Rv; experiment: microbe, parasite or virus in culture; type: cell-based, Mycobacterium tuberculosis; set-up: MICMABA: unit not given here; settings: for activity in comparison to the 4,6-dimethyl analog (1h): H37Rv MIC relative to 1h
M. tuberculosis H37Rv [2] = settings: 100 mg/kg oral gavage
M. tuberculosis H37Rv [3] = experiment: microbe, parasite or virus in culture; type: cell-based, Mycobacterium tuberculosis; set-up: MICBD / MBCBD: unit not given here
Vero cells = experiment: Cytotoxicity assay on Vero cells (alamar blue); settings: for IC50: Chlorocebus sabaeus, Vero
[4] = Cytotoxicity assay on Vero cells (alamar blue); settings: African green monkey, Vero cells (ATCC CCL-81)
M. tuberculosis H37Rv [5] = type: cell-based, Mycobacterium tuberculosis; settings: 4× MIC
[6] = system: V4207 (drug susceptible strain of M. tuberculosis); experiment: microbe, parasite or virus in culture; type: cell-based; settings: Mycobacterium tuberculosis, MABA, read-out: MIC V4207 (DS)
M. tuberculosis H37Rv [7] = type: in vivo, BALB/c mice
[8] = Mycobacterium tuberculosis, H37RV
[9] = Mycobacterium tuberculosis, parental H37Rv strain, read-out: MIC for H37Rv
[10] = Mycobacterium tuberculosis, H37RV, read-out: MIC for H37Rv

## N-(2,3,5 -methyl, 4-dimethyl)-4,6-difluoro-1H-indole-2-carboxamide
[1]
  activity in comparison to the 4,6-dimethyl analog (1h): as active as 1h
[1]; H37Rv, MABA, Table 9
  MICMABA: 0.0039
M. tuberculosis H37Rv [2]; Balb/c mice
  bioavailability in vivo by serum inhibition titration: bioavailable in vivo
M. tuberculosis H37Rv [2]; isoniazid positive control
  serum inhibition activity compared with isoniazid: comparable to that of isoniazid

## Cc1cc(C)c2cc(C(=O)Nc3ccncc3)[nH]c2c1 [Compound 6, N-(4-Pyridinyl)-4,6-dimethyl-1H-indole-2-carboxamide]
[1]; H37Rv, MABA, Table 9
  MICMABA: 32
[1]; [8]
  MIC: 240 µM
M. tuberculosis H37Rv [3]; H37Rv, broth dilution, Table 9
  MICBD: 64

## Cc1cc(C)c2cc(C(=O)NC3CCN(C(C)C)CC3)[nH]c2c1 [Compound 8, N-(1-Isopropyl-4-piperidinyl)-4,6-dimethyl-1H-indole-2-carboxamide]
[1]; H37Rv, MABA, Table 9
  MICMABA: 64
[1]; [8]
  MIC: 204 µM

## Cc1cc(C)c2c(C(=O)NC34CC5CC(CC(C5)C3)C4)c[nH]c2c1 [Compound 43, N-(1-Adamantyl)-4,6-dimethyl-1H-indole-3-carboxamide]
[1]; H37Rv, MABA, Table 9
  MICMABA: >64

## NCC[C@H](O)C(=O)N[C@@H]1C[C@H](N)[C@@H](O[C@H]2O[C@H](CN)[C@@H](O)[C@H](O)[C@H]2O)[C@H](O)[C@H]1O[C@H]1O[C@H](CO)[C@@H](O)[C@H](N)[C@H]1O [Amikacin]
[1]; [9]
  MIC: 1 µg/mL

## CC[C@@H](CO)NCCN[C@@H](CC)CO [Ethambutol]
[1]; [9]
  MIC: 1 µg/mL

## Cc1cc(C)c2cc(C(=O)NC3C4CC5CC(C4)CC3C5)[nH]c2c1 (stereo not shown) [Compound 14, N-(2-Adamantyl)-4,6-dimethyl-1H-indole-2-carboxamide]
[1]; H37Rv, MABA, Table 9
  MICMABA: 0.0039
[1]; [8]
  MIC: 0.012 µM
Vero cells; read-out: IC50 Vero Cells
  IC50: > 64 µg/mL
[4]
  IC50 at 72 h: > 200 µM

## Cc1cc(C)c2c(C(=O)NC3CCCCCCC3)c[nH]c2c1 [Compound 42, N-Cyclooctyl-4,6-dimethyl-1H-indole-3-carboxamide]
[1]; H37Rv, MABA, Table 9
  MICMABA: >64

## O=C(NC1CCCCCCC1)c1cc2c(Cl)cc(Cl)cc2[nH]1 [Compound 70, N-Cyclooctyl-4,6-dichloro-1H-indole-2-carboxamide]
[1]; H37Rv, MABA, Table 9
  MICMABA: 0.0039

## CO[C@H]1/C=C/O[C@@]2(C)Oc3c(C)c(O)c4c(O)c(c(/C=N/N5CCN(C)CC5)c(O)c4c3C2=O)NC(=O)/C(C)=C\C=C\[C@H](C)[C@H](O)[C@@H](C)[C@@H](O)[C@@H](C)[C@H](OC(C)=O)[C@@H]1C [Rifampin]
[1]; [10]
  MIC: 0.125 µg/mL

## C[C@H]1COc2c(N3CCN(C)CC3)c(F)cc3c(=O)c(C(=O)O)cn1c23 [Levofloxacin, reference compound]
[1]; [9]
  MIC: 0.25 µg/mL

## Cc1cc(C)c2cc(C(=O)Nc3ccc(C)c(F)c3)[nH]c2c1 [Compound 5, N-(3-Fluoro-4-methylphenyl)-4,6-dimethyl-1H-indole-2-carboxamide]
[1]; H37Rv, MABA, Table 9
  MICMABA: 0.25
[1]; [8]
  MIC: 1.7 µM
Vero cells; read-out: IC50 Vero Cells
  IC50: > 64 µg/mL
[4]
  IC50 at 72 h: > 200 µM
M. tuberculosis H37Rv [3]; H37Rv, broth dilution, Table 9
  MBCBD: 8
  MICBD: 0.5

## Cc1cc(C)c2cc(C(=O)NC3CCCN(C)CC3)[nH]c2c1 (stereo not shown) [Compound 9, N-(1-Methyl-4-azepanyl)-4,6-dimethyl-1H-indole-2-carboxamide]
[1]; H37Rv, MABA, Table 9
  MICMABA: 128
[1]; [8]
  MIC: 428 µM

## Cc1cc(C)c2cc(C(=O)NC34CC5CC(CC(C5)C3)C4)[nH]c2c1 [Compound 13, N-(1-Adamantyl)-4,6-dimethyl-1H-indole-2-carboxamide]
[1]; H37Rv, MABA, Table 9
  MICMABA: 0.0019
[1]; [8]
  MIC: 0.012 µM
Vero cells; read-out: IC50 Vero Cells
  IC50: > 64 µg/mL
[4]
  IC50 at 72 h: > 200 µM

## NC[C@H]1O[C@H](O[C@H]2[C@H](O)[C@@H](O[C@H]3O[C@H](CO)[C@@H](O)[C@H](N)[C@H]3O)[C@H](N)C[C@@H]2N)[C@H](O)[C@@H](O)[C@@H]1O [Kanamycin, reference compound]
[1]; [10]
  MIC: 2 µg/mL

## COc1c(N2C[C@@H]3CCCN[C@@H]3C2)c(F)cc2c(=O)c(C(=O)O)cn(C3CC3)c12 [Moxifloxacin, reference compound]
[1]; [9]
  MIC: 0.0625 to 0.125 µg/mL

## Cc1ccc(NC(=O)c2cc3ccccc3[nH]2)cc1F [Compound 27, N-(3-Fluoro-4-methylphenyl)-1H-indole-2-carboxamide]
[1]; H37Rv, MABA, Table 9
  MICMABA: 128
M. tuberculosis H37Rv [3]; H37Rv, broth dilution, Table 9
  MICBD: 128

## CC(C)=CCC/C(C)=C/CNCCNC1C2CC3CC(C2)CC1C3 (stereo not shown) [SQ109]
[1]; [9]
  MIC: 0.25 µg/mL

## Cc1cc(C)c2cc(C(=O)NC3CCN(C)CC3)[nH]c2c1 [Compound 7, N-(1-Methyl-4-piperidinyl)-4,6-dimethyl-1H-indole-2-carboxamide]
[1]
  MICMABA: 128
[1]; [8]
  MIC: 448 µM

## Cc1cc(C)c2cc(C(=O)NCC3CCCCC3)[nH]c2c1 [Compound 15, N-(Cyclohexylmethyl)-4,6-dimethyl-1H-indole-2-carboxamide]
[1]; H37Rv, MABA, Table 9
  MICMABA: 0.25
[1]; [8]
  MIC: 0.88 µM
Vero cells; read-out: IC50 Vero Cells
  IC50: > 64 µg/mL
[4]
  IC50 at 72 h: > 200 µM
M. tuberculosis H37Rv [3]; H37Rv, broth dilution, Table 9
  MBCBD: 0.25
  MICBD: 0.25

## Cc1cc(C)c2cc(C(=O)NC3CC3)[nH]c2c1 [Compound 10, N-Cyclopropyl-4,6-dimethyl-1H-indole-2-carboxamide]
[1]; H37Rv, MABA, Table 9
  MICMABA: 64
[1]; [8]
  MIC: 561 µM
M. tuberculosis H37Rv [3]; H37Rv, broth dilution, Table 9
  MICBD: 128

## Cc1cc(C)c2c(C(=O)NC3C4CC5CC(C4)CC3C5)c[nH]c2c1 (stereo not shown) [Compound 44, N-(2-Adamantyl)-4,6-dimethyl-1H-indole-3-carboxamide]
[1]; H37Rv, MABA, Table 9
  MICMABA: >64

## O=C(NC1CCCCCCC1)c1cc2c(F)cc(F)cc2[nH]1 [Compound 29, N-Cyclooctyl-4,6-difluoro-1H-indole-2-carboxamide]
[1]
  activity in comparison to the 4,6-dimethyl analog (1h): 8 fold
[1]; H37Rv, MABA, Table 9
  MICMABA: 0.031

## Cc1cc(C)c2cc(C(=O)N(C)C3CCCCC3)[nH]c2c1 [Compound 16, N-Cyclohexyl-N,4,6-trimethyl-/H-indole-2-carboxamide]
[1]
  MIC: 450 µM
  MICMABA: 32
M. tuberculosis H37Rv [3]
  MICBD: 128

## O=C(NC12CC3CC(CC(C3)C1)C2)c1cc2ccc(O)cc2[nH]1 [Compound 32, N-(1-Adamantyl)-6-hydroxy-1H-indole-2-carboxamide]
[1]; H37Rv, MABA, Table 9
  MICMABA: 2
Vero cells; read-out: IC50 Vero Cells
  IC50: 16 µg/mL (≈ 51.5 µM)

## O=C(NC1CCCCC1)c1cc2ccccc2[nH]1 [Compound 26, N-Cyclohexyl-1H-indole-2-carboxamide]
[1]; H37Rv, MABA, Table 9
  MICMABA: 128
M. tuberculosis H37Rv [3]; H37Rv, broth dilution, Table 9
  MICBD: >128

## Cc1cc(C)c2cc(C(=O)NC3CCCCCC3)[nH]c2c1 [Compound 11, N-Cycloheptyl-4,6-dimethyl-1H-indole-2-carboxamide]
[1]; H37Rv, MABA, Table 9
  MICMABA: 0.0156
[1]; [8]
  MIC: 0.055 µM
[1]; Mycobacterium tuberculosis, control strains H37Rv and V4207, read-out: MIC
  MIC: 0.0156 to 0.0313 µg/mL
[1]; [9]
  MIC: 0.0156 to 0.0313 µg/mL
M. tuberculosis H37Rv [5]
  time to kill at least 4 log10 CFUs: ≤ 3 days
Vero cells; read-out: IC50 Vero Cells
  IC50: > 64 µg/mL
Vero cells; read-out: IC50 for Vero cell viability
  IC50: > 64 µg/mL
Vero cells; Vero IC50 versus MIC, Table 9
  Selectivity Index: >2048
Vero cells; toxicity versus MIC
  selectivity index: > 2048
[4]
  IC50 at 72 h: > 200 µM
M. tuberculosis H37Rv [3]; H37Rv, broth dilution, Table 9
  MBCBD: 0.0312
  MICBD: 0.0156
M. tuberculosis H37Rv [3]; Mycobacterium tuberculosis, H37RV, read-out: minimum bactericidal concentration (MBC)
  MBC: 0.0313 µg/mL (≈ 0.11 µM)
[6]
  MIC: 0.11 µM (≈ 0.0313 µg/mL)

## BM212
[1]; parental H37Rv strain
  MIC for H37Rv: 2 µg/mL

## N-(2,3,5 -methyl, 4-dimethyl)-6-bromo-1H-indole-2-carboxamide [BB]
[1]; H37Rv, MABA, Table 9
  MICMABA: 0.0039- 0.0078

## Cc1cc(C)c2cc(C(=O)NC3CCCCC3)n(C)c2c1 [Compound 18, N-Cyclohexyl-1,4,6-trimethyl-11-1-indole-2-carboxamide]
[1]
  MICMABA: 128
[1]; [8]
  MIC: 450 µM
M. tuberculosis H37Rv [3]; H37Rv, broth dilution, Table 9
  MICBD: 128

## Cc1cc(C)c2cc(C(=O)N3CCCCC3)[nH]c2c1 [Compound 17, (4,6-Dimethyl-11-1-indo1-2-yl)(piperidin-1-yl)methanone]
[1]
  MIC: >499 µM

## COc1ccc2cc(C(=O)NC34CC5CC(CC(C5)C3)C4)[nH]c2c1 [Compound 30, N-(1-Adamantyl)-6-methoxy-1H-indole-2-carboxamide]
[1]; H37Rv, MABA, Table 9
  MICMABA: 0.25
Vero cells; read-out: IC50 Vero Cells, Vero cells, Table 9
  IC50: 64 µg/mL (≈ 197 µM)

## NNC(=O)c1ccncc1 [Isoniazid, reference compound]
[1]; H37Rv, MABA, Table 9
  MICMABA: 0.04
[1]; [8]
  MIC: 0.29 µM
[1]; [9]
  MIC: 0.04 µg/mL
M. tuberculosis H37Rv [7]; isoniazid 10 mg/kg oral gavage daily (5 days per week), Day 7
  Mean lung CFU counts (standard deviation), Day 7: 5.508 (0.124)
M. tuberculosis H37Rv [7]; isoniazid 10 mg/kg oral gavage daily, Day 14
  Mean lung CFU counts (standard deviation), Day 14: 5.266 (0.089)
M. tuberculosis H37Rv [7]; isoniazid 10 mg/kg oral gavage daily, Day 28
  Mean lung CFU counts (standard deviation), Day 28: 4.561 (0.088)

## Capreomycin
[1]; parental H37Rv strain
  MIC for H37Rv: 1 µg/mL

## Cc1cc(C)c2c(C(=O)NC3CCCCCC3)c[nH]c2c1 [Compound 41, N-Cycloheptyl-4,6-dimethyl-1H-indole-3-carboxamide]
[1]; H37Rv, MABA, Table 9
  MICMABA: >64

From patent US20170044100A1, “INHIBITORS OF DRUG-RESISTANT MYCOBACTERIUM TUBERCULOSIS” (THE JOHNS HOPKINS UNIVERSITY, priority 2014, published 2017)
